The target in the test is T1, androgen receptor (Homo sapiens, UniProt P10275, T878A).
T1 construct: host or cells: LNCaP.FGC
Briefly: Androgen receptor degradation assay using Western blot analysis. Type of test: cell-based. The protocol:
Cells not treated with any of the above-mentioned compounds are used as a negative control.
The internal loading control GAPDH was detected using a mouse monoclonal antibody (1:5000) (GTX627408, GeneTex International Corp., HsinChu City, Taiwan R.O.C.) and a goat anti-mouse HRP-conjugated secondary antibody (1:5000 dilution) (C04001, Croyez Bioscience Co., Ltd., Taipei City, Taiwan R.O.C.).
AR remaining percentage was determined by the intensity difference of AR signals (each was normalized by the corresponding internal loading control GAPDH) between the protein samples from the untreated cells (100%) and those from the treated cells. “Cpd. #” indicates the compound number hereinabove.
In addition, several compounds were selected to prepare a treatment stock solutions at 100 nM in RPMI medium. The treatment stock solutions were separately serially diluted (10×) with RPMI medium for treating LNCaP.FGC cells seeded with 2×10^5 cells per well in 24-well tissue culture plates. A calibration curve was determined by the serial diluted samples for each compound, and the concentration needed for 50% AR degradation (AR DC50) for each compound was calculated.
For orientation: A western blot detects proteins with antibodies after separation by electrophoresis.

[1] abbreviates: read-out: AR DC50 (concentration needed for 50% AR degradation); LNCaP.FGC cells, serial 10x dilutions from 100 nM.
Setting [2] is: 24 h, LNCaP.FGC cells, 100 nM, 24 hr, normalized to GAPDH, untreated cells = 100%; read-out: Androgen Receptor Remaining (%).
[3] abbreviates: LNCaP.FGC cells, serial 10x dilutions from 100 nM; read-out: AR DC50 (concentration needed for 50% AR degradation).
Setting [4] is: 24 h, read-out: Androgen Receptor Remaining (%), LNCaP.FGC cells, 100 nM, 24 hr, normalized to GAPDH, untreated cells = 100%.

Like-named read-outs stand apart in the source and are kept apart here. Bounds are passed on as bounds.

T1 sequence (P10275 whole entry T878A): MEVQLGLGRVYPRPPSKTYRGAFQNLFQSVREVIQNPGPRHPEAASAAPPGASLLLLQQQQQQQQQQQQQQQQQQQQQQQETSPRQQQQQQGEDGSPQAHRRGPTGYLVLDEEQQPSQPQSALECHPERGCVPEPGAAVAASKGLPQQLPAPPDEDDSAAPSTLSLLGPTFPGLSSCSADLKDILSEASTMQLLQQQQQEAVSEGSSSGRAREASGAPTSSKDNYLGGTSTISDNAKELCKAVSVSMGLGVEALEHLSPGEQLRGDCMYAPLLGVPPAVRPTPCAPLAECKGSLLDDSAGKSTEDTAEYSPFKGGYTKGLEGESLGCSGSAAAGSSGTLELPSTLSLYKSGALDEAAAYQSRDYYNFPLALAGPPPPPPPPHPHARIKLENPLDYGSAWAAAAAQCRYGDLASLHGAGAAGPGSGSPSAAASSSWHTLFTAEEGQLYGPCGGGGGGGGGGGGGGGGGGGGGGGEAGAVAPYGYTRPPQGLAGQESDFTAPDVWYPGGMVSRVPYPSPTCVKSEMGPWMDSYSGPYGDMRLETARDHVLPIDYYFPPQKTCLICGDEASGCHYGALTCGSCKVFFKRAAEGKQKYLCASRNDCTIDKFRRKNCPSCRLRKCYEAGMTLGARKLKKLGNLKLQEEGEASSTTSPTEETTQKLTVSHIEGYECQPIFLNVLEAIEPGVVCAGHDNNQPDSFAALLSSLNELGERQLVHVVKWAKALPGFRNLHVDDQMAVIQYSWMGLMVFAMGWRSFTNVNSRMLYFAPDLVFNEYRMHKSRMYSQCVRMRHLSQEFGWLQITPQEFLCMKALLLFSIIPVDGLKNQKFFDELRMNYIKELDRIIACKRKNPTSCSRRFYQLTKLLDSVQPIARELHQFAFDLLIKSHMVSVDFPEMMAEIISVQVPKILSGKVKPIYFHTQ
T1 sequence (Q96SW2 whole entry partner): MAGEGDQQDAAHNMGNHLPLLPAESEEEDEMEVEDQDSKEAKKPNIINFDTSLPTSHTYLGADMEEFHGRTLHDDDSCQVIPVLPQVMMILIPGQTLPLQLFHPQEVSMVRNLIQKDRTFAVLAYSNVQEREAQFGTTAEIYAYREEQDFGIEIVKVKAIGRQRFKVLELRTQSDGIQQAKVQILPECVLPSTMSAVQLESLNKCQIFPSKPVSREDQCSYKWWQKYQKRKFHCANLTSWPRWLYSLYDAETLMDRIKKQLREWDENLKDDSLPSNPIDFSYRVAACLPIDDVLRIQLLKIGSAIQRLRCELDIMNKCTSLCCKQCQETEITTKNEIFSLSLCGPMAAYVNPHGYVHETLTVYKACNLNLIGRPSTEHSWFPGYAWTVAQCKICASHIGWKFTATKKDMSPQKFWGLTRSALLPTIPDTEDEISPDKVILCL

`CCn1c2c(c3ccc(OCCCN4CCC(c5ncc(C(=O)N[C@H]6CC[C@H](Oc7ccc(C#N)c(Cl)c7)CC6)cn5)CC4)cc31)C(=O)N(C1CCC(=O)NC1=O)C2=O` (some centres unmarked) [Compound 38]: the DC50 under setting [1] lay within 25 to 100 nM. As for `Cn1c2c(c3ccc(OCCCN4CCN(c5ccc(C(=O)N[C@H]6CC[C@H](Oc7ccc(C#N)c(Cl)c7)CC6)nn5)CC4)cc31)C(=O)N(C1CCC(=O)NC1=O)C2=O` (some centres unmarked) [Compound 39], the remaining activity at 0.1 µM under setting [2] is 16%. Further, under setting [3], the DC50 is 10 to 25 nM. The corresponding values for `Cn1c2c(c3ccc(OCCCN4CCN(c5ccc(C(=O)N[C@H]6C(C)(C)[C@H](Oc7ccc(C#N)c(Cl)c7)C6(C)C)nn5)CC4)cc31)C(=O)N(C1CCC(=O)NC1=O)C2=O` (some centres unmarked) [Compound 40] are 29% and above 100 nM. As for `Cn1c2c(c3ccc(NC(=O)CN4CCN(c5ccc(C(=O)N[C@H]6CC[C@H](Oc7ccc(C#N)c(Cl)c7)CC6)nn5)CC4)cc31)C(=O)N(C1CCC(=O)NC1=O)C2=O` (some centres unmarked) [Compound 41], under setting [2], the remaining activity at 0.1 µM came to 81%. In the case of `Cn1c2c(c3ccc(NC(=O)CN4CCN(c5ccc(C(=O)N[C@H]6C(C)(C)[C@H](Oc7ccc(C#N)c(Cl)c7)C6(C)C)cn5)CC4)cc31)C(=O)N(C1CCC(=O)NC1=O)C2=O` (some centres unmarked) [Compound 42], the remaining activity at 0.1 µM under setting [2] is 30%. For the same compound, the DC50 under setting [3] was 10 to 25 nM.

In the case of `Cn1c2c(c3cccc(OCCCN4CCN(c5ccc(C(=O)N[C@H]6CC[C@H](Oc7ccc(C#N)c(Cl)c7)CC6)nn5)CC4)c31)C(=O)N(C1CCC(=O)NC1=O)C2=O` (some centres unmarked) [Compound 43], the remaining activity at 0.1 µM under setting [2] came to 26%. Moreover, the DC50 under setting [3] lay within 25 to 100 nM. `Cn1c2c(c3ccc(OCCCN4CCC(c5ncc(C(=O)N[C@H]6CC[C@H](Oc7ccc(C#N)c(Cl)c7)CC6)cn5)CC4)cc31)C(=O)N(C1CCC(=O)NC1=O)C2=O` (some centres unmarked) [Compound 44]: under setting [3], the DC50 lay in the range of 25 to 100 nM. With `Cn1c2c(c3ccc(OCCN4CCC(c5ncc(C(=O)N[C@H]6CC[C@H](Oc7ccc(C#N)c(Cl)c7)CC6)cn5)CC4)cc31)C(=O)N(C1CCC(=O)NC1=O)C2=O` (some centres unmarked) [Compound 45], under setting [3], the DC50 is 25 to 100 nM. Consider `CCn1c2c(c3ccc(OCCCN4CCCN(c5ccc(C(=O)N[C@H]6CC[C@H](Oc7ccc(C#N)c(Cl)c7)CC6)nn5)CC4)cc31)C(=O)N(C1CCC(=O)NC1=O)C2=O` (some centres unmarked) [Compound 46], for which the remaining activity at 0.1 µM under setting [4] worked out at 20%. Further, the DC50 under setting [1] lay in the range of 10 to 25 nM. As for `CCn1c2c(c3ccc(OCCCN4C5CCC4CN(c4ccc(C(=O)N[C@H]6CC[C@H](Oc7ccc(C#N)c(Cl)c7)CC6)nn4)C5)cc31)C(=O)N(C1CCC(=O)NC1=O)C2=O` (some centres unmarked) [Compound 47], the remaining activity at 0.1 µM under setting [4] was determined as 19%. Further, under setting [1], the DC50 is 10 to 25 nM. For the compound `CCn1c2c(c3ccc(OCCCN4CCC5(CC4)CN(c4ccc(C(=O)N[C@H]6CC[C@H](Oc7ccc(C#N)c(Cl)c7)CC6)nn4)C5)cc31)C(=O)N(C1CCC(=O)NC1=O)C2=O` (some centres unmarked) [Compound 48], under setting [4], the remaining activity at 0.1 µM was found to be 20%. Also, under setting [1], the DC50 was below 10 nM. With `CCn1c2c(c3ccc(OCCCN4CCC5(CC4)CN(c4ccc(C(=O)N[C@H]6C(C)(C)[C@H](Oc7ccc(C#N)c(Cl)c7)C6(C)C)nn4)C5)cc31)C(=O)N(C1CCC(=O)NC1=O)C2=O` (some centres unmarked) [Compound 49], under setting [4], the remaining activity at 0.1 µM worked out at 36%. Moreover, the DC50 under setting [1] was in the range of 25 to 100 nM.

As to `Cn1c2c(c3ccc(NC(=O)CN4CCN(c5ccc(C(=O)N[C@H]6C(C)(C)[C@H](Oc7ccc(C#N)c(Cl)c7)C6(C)C)nn5)CC4)cc31)C(=O)N(C1CCC(=O)NC1=O)C2=O` (some centres unmarked) [Compound 50], the remaining activity at 0.1 µM under setting [2] came to 45%. Further, the DC50 under setting [3] fell in the range of 25 to 100 nM. In the case of `CCn1c2c(c3ccc(OCCN4CCC5(CC4)CN(c4ccc(C(=O)N[C@H]6C(C)(C)[C@H](Oc7ccc(C#N)c(Cl)c7)C6(C)C)nn4)C5)cc31)C(=O)N(C1CCC(=O)NC1=O)C2=O` (some centres unmarked) [Compound 51], under setting [4], the remaining activity at 0.1 µM amounted to 20%. The DC50 under setting [1] was 25 to 100 nM. In the case of `CCn1c2c(c3ccc(OCCN4CCCN(c5ccc(C(=O)N[C@H]6CC[C@H](Oc7ccc(C#N)c(Cl)c7)CC6)nn5)CC4)cc31)C(=O)N(C1CCC(=O)NC1=O)C2=O` (some centres unmarked) [Compound 52], under setting [4], the remaining activity at 0.1 µM was found to be 42%. For the same compound, the DC50 under setting [1] was 10 to 25 nM. Regarding `CCn1c2c(c3ccc(OCCN4CCCN(c5ccc(C(=O)N[C@H]6C(C)(C)[C@H](Oc7ccc(C#N)c(Cl)c7)C6(C)C)nn5)CC4)cc31)C(=O)N(C1CCC(=O)NC1=O)C2=O` (some centres unmarked) [Compound 53], the remaining activity at 0.1 µM under setting [4] worked out at 77%. With `CCn1c2c(c3ccc(OCCCN4CCCN(c5ccc(C(=O)N[C@H]6C(C)(C)[C@H](Oc7ccc(C#N)c(Cl)c7)C6(C)C)nn5)CC4)cc31)C(=O)N(C1CCC(=O)NC1=O)C2=O` (some centres unmarked) [Compound 54], the remaining activity at 0.1 µM under setting [4] amounted to 72%. For the compound `CCn1c2c(c3ccc(OCCN4C[C@H](C)N(c5ccc(C(=O)N[C@H]6CC[C@H](Oc7ccc(C#N)c(Cl)c7)CC6)nn5)C[C@H]4C)cc31)C(=O)N(C1CCC(=O)NC1=O)C2=O` (some centres unmarked) [Compound 55], the remaining activity at 0.1 µM under setting [4] was determined as 40%. For the same compound, the DC50 under setting [1] was in the range of 25 to 100 nM.

In the case of `CCn1c2c(c3ccc(NC(=O)CN4CCN(c5ccc(C(=O)N[C@H]6C(C)(C)[C@H](Oc7ccc(C#N)c(Cl)c7)C6(C)C)cn5)CC4)cc31)C(=O)N(C1CCC(=O)NC1=O)C2=O` (some centres unmarked) [Compound 56], the remaining activity at 0.1 µM under setting [4] came out at 4%. Under setting [1], the DC50 was in the range of 25 to 100 nM.

Consider `CCn1c2c(c3ccc(OCCN4CCN(c5ccc(C(=O)N[C@H]6CC[C@H](Oc7ccc(C#N)c(Cl)c7)CC6)nn5)[C@@H](C)C4)cc31)C(=O)N(C1CCC(=O)NC1=O)C2=O` (some centres unmarked) [Compound 57], for which the remaining activity at 0.1 µM under setting [4] worked out at 53%. With `CC[C@H]1CN(CCOc2ccc3c4c(n(CC)c3c2)C(=O)N(C2CCC(=O)NC2=O)C4=O)CCN1c1ccc(C(=O)N[C@H]2CC[C@H](Oc3ccc(C#N)c(Cl)c3)CC2)nn1` (some centres unmarked) [Compound 58], the remaining activity at 0.1 µM under setting [4] was found to be 65%. For the compound `CCn1c2c(c3ccc(OCCCN4C[C@H](C)N(c5ccc(C(=O)N[C@H]6CC[C@H](Oc7ccc(C#N)c(Cl)c7)CC6)nn5)C[C@H]4C)cc31)C(=O)N(C1CCC(=O)NC1=O)C2=O` (some centres unmarked) [Compound 59], under setting [4], the remaining activity at 0.1 µM amounted to 66%. For `CC[C@H]1CN(CCCOc2ccc3c4c(n(CC)c3c2)C(=O)N(C2CCC(=O)NC2=O)C4=O)CCN1c1ccc(C(=O)N[C@H]2CC[C@H](Oc3ccc(C#N)c(Cl)c3)CC2)nn1` (some centres unmarked) [Compound 60], the remaining activity at 0.1 µM under setting [4] was 57%. Regarding `CCn1c2c(c3ccc(OCCCN4CCN(c5cnc(C(=O)N[C@H]6CC[C@H](Oc7ccc(C#N)c(Cl)c7)CC6)cn5)CC4)cc31)C(=O)N(C1CCC(=O)NC1=O)C2=O` (some centres unmarked) [Compound 61], the remaining activity at 0.1 µM under setting [4] stood at 96%.

In the case of `CCn1c2c(c3ccc(OCCN4CCN(c5cnc(C(=O)N[C@H]6CC[C@H](Oc7ccc(C#N)c(Cl)c7)CC6)cn5)CC4)cc31)C(=O)N(C1CCC(=O)NC1=O)C2=O` (some centres unmarked) [Compound 62], under setting [4], the remaining activity at 0.1 µM stood at 65%. As for `CCn1c2c(c3ccc(OCCCN4CCN(c5ccc(C(=O)N[C@H]6CC[C@H](Oc7ccc(C#N)c(Cl)c7)CC6)nn5)CC4)cc31)C(=O)N([C@H]1CCC(=O)NC1=O)C2=O` [Compound 63], under setting [1], the DC50 lay within 10 to 25 nM.

In the case of `CCn1c2c(c3ccc(OCCN4C5CCC4CN(c4ccc(C(=O)N[C@H]6CC[C@H](Oc7ccc(C#N)c(Cl)c7)CC6)nn4)C5)cc31)C(=O)N(C1CCC(=O)NC1=O)C2=O` (some centres unmarked) [Compound 64], the remaining activity at 0.1 µM under setting [4] was 40%. Under setting [1], the DC50 lay in the range of 25 to 100 nM. Consider `CCn1c2c(c3ccc(OCCCN4CCN(c5ccc(C(=O)N[C@H]6CC[C@H](Oc7ccc(C#N)c(Cl)c7)CC6)nn5)[C@@H](C)C4)cc31)C(=O)N(C1CCC(=O)NC1=O)C2=O` (some centres unmarked) [Compound 65], for which, under setting [4], the remaining activity at 0.1 µM was found to be 32%. The DC50 under setting [1] was 25 to 100 nM. In the case of `Cn1c2c(c3ccc(NC(=O)CN4CCN(c5ccc(C(=O)N[C@H]6CC[C@H](Oc7ccc(C#N)c(Cl)c7)CC6)cn5)CC4)cc31)C(=O)N(C1CCC(=O)NC1=O)C2=O` (some centres unmarked) [Compound 66], the remaining activity at 0.1 µM under setting [2] amounted to 100%. Still for that read-out and setting: in the case of `Cn1c2c(c3ccc(NC(=O)CN4CCCN(c5ccc(C(=O)N[C@H]6CC[C@H](Oc7ccc(C#N)c(Cl)c7)CC6)nn5)CC4)cc31)C(=O)N(C1CCC(=O)NC1=O)C2=O` (some centres unmarked) [Compound 68] it was 81%; in that of `Cn1c2c(c3ccc(NC(=O)CN4CCC5(CC4)CN(c4ccc(C(=O)N[C@H]6C(C)(C)[C@H](Oc7ccc(C#N)c(Cl)c7)C6(C)C)nn4)C5)cc31)C(=O)N(C1CCC(=O)NC1=O)C2=O` (some centres unmarked) [Compound 69], 51%. As for `CCn1c2c(c3ccc(OCCN4CC5CCC(C4)N5c4ccc(C(=O)N[C@H]5CC[C@H](Oc6ccc(C#N)c(Cl)c6)CC5)nn4)cc31)C(=O)N(C1CCC(=O)NC1=O)C2=O` (some centres unmarked) [Compound 70], the remaining activity at 0.1 µM under setting [4] stood at 62%. Take `CCn1c2c(c3ccc(OCCCN4CC5CCC(C4)N5c4ccc(C(=O)N[C@H]5CC[C@H](Oc6ccc(C#N)c(Cl)c6)CC5)nn4)cc31)C(=O)N(C1CCC(=O)NC1=O)C2=O` (some centres unmarked) [Compound 71]: the remaining activity at 0.1 µM under setting [4] turned out to be 77%. As to `CCn1c2c(c3ccc(OCCCN4CC5(CCN(c6ccc(C(=O)N[C@H]7CC[C@H](Oc8ccc(C#N)c(Cl)c8)CC7)nn6)CC5)C4)cc31)C(=O)N(C1CCC(=O)NC1=O)C2=O` (some centres unmarked) [Compound 72], for the setting “LNCaP.FGC cells, 100 nM, 24 hr, normalized to GAPDH, untreated cells = 100%”, the “Androgen Receptor Remaining (%)” value is reported as 26%. The DC50 under setting [1] was below 10 nM.

These data come from patent US20250197409A1, “BIFUNCTIONAL COMPOUND AND PHARMACEUTICAL COMPOSITION COMPRISING THE BIFUNCTIONAL COMPOUND, AND METHOD FOR TREATING ANDROGEN RECEPTOR RELATED DISEASE BY USING THE SAME” (ANHORN MEDICINES CO., LTD., priority 2022, published 2025).
